# Laboratory results: article PMC10449633 (Nature Chemical Biology, 2023)
# “And” between values parts separate entries of the source, which are not always exact repeats. Equal entries are not always repeated. Where two headings read alike, the source gives them in different places. Numbered stars: 1 amine (or outer) side, 2 acyl side, 3 side chain; on linkers, the order of the positions; unused ones are H or OH. Square brackets hold non-standard residues; d marks the D form. Peptide text beside a SMILES is read from it. ξ: configuration not given here. X1 = CN(C(Cc1cn(Cc2ccc(Br)cc2)c2ccccc12)C(=O)[*:2])[*:1]; ξAla(CF3) = NC(CC(F)(F)F)C(=O)O; X2 = N#CCCC(O[*:1])C(=O)[*:2]; NMeL = CN[CH](CC(C)C)C(=O)O; NMeA = CN[CH](C)C(=O)O
# Columns and labels:
# [1] = molecular target: Sec61α Q294A (Canis lupus familiaris, UniProt P38377, Q294A); experiment: Luciferase reporter assay in HEK293 cells expressing Sec61α Q294A; parameters: remaining activity: dose or concentration left out as unconfirmed; conditions: HEK293, 24 h, read-out: luciferase reporter activity (% of no-drug control), Q294A
# Sequence of Sec61α Q294A (P60059 whole entry): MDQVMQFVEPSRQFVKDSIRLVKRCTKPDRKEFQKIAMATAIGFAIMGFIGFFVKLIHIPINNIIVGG
# Sequence of Sec61α Q294A (P38377 whole entry Q294A): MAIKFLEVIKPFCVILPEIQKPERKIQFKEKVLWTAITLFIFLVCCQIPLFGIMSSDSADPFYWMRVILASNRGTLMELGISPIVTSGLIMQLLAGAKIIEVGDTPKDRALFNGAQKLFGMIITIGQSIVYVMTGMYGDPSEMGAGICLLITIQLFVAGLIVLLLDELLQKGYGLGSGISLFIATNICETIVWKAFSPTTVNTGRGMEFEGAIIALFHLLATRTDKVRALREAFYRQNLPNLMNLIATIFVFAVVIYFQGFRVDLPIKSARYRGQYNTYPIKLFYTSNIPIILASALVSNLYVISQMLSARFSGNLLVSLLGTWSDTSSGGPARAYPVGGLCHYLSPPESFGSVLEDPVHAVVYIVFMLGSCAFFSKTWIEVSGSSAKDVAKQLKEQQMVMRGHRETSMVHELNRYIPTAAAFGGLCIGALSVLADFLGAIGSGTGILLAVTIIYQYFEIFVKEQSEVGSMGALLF
# Sequence of Sec61α Q294A (P60468 whole entry, further chain): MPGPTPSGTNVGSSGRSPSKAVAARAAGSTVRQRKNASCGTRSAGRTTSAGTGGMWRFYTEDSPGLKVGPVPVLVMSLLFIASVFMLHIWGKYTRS
# Procedure: (§1) Data are mean values ± s.d. from n = 2 independent experiments.
# (§2) HEK293T cells (0.3 × 10^6) were seeded per well of a six-well plate and incubated at 37 °C in 5% CO2 for 24 h to adhere. Each of the two wells was transfected with 1 µg of plasmid encoding a luciferase with the signal peptide of either VCAM1 or pPL using PEI in a 5:1 ratio, after which cells were returned to the incubator for a further 24 h. Transfected cells were then resuspended following trypsinization, cell count estimated using a TC20 Automated Cell Counter (BioRad) and diluted to seed a 96-well flat-bottom plate with 1.6 × 10^4 cells per well. […] Cells were then incubated for a further 24 h, after which the luciferase-containing media were transferred to a clean 96-well plate and stored at −20 °C. Luciferase activity of the media was estimated using a Gaussia-GLOW Juice Luciferase Assay kit from PJK Biotech GmbH as per the manufacturer’s instructions. Luminescence was measured using an EnSpire Multimode plate reader (PerkinElmer). Background luminescence from media placed in a well with neither cells nor drug was subtracted from all values, and measurements were calculated as a percentage of luminescence intensity of a well expressing the appropriate luciferase construct in the absence of any drug. Curves were fitted, and IC50 values were calculated using GraphPad Prism 8.
# (§3) WT canine Sec61 was cloned into pcDNA5/FRT/TO (Thermo Fisher Scientific), and point mutations were generated using PCR. All mutants were sequence verified. HEK293 Flp-In T-REx cells (Thermo Fisher Scientific, R78007) were cultured in Dulbecco’s modified Eagle’s medium (Gibco) supplemented with 10% FBS (Gibco) at 37 °C in a humidified 5% CO2 atmosphere. Approximately 0.3 µg of pOG44 and 1 µg of targeting construct plasmids were mixed in 250 µl of OptiMEM (Thermo Fisher Scientific, 51985-026). A total of 3 µl (3 µg) Lipofectamine3000 transfection reagent was then added to the DNA mix and incubated at room temperature for 20 min, and the whole mixture was added to the cells. Cells were exposed to 100 µg ml^−^1 hygromycin B (Invitrogen) and 10 µg ml^−^1 blasticidin for 3–4 weeks until the appearance of resistant colonies. Colonies were expanded into T75 flasks and induced with doxycycline (Sigma-Aldrich, D9891) at a concentration of 1–5 µg ml^−^1 for 48 h. Cells were collected, and total RNA was extracted followed by cDNA amplification and sequencing of Sec61 with gene-specific PCR primers to confirm. Cells were then used for the luciferase reporter assays as above.
# (§4) Data are mean values ± SD and are representative of n = 2 independent experiments.
# [2] = molecular target: Sec61α N300A (Canis lupus familiaris, UniProt P38377, N300A); experiment: Luciferase reporter assay in HEK293 cells expressing Sec61α N300A; parameters: remaining activity: dose or concentration left out as unconfirmed
# Sequence of Sec61α N300A (P60468 whole entry): as the sequence (P60468 whole entry, further chain) above
# Sequence of Sec61α N300A (P60059 whole entry, further chain): as the sequence (P60059 whole entry) above
# Sequence of Sec61α N300A (P38377 whole entry N300A): as the sequence (P38377 whole entry Q294A) above, with A294Q, N300A counted along it
# Procedure: as §1, §2, §3, §4
# [3] = test system: SARS-CoV-2; assay type: cell-based; conditions: for infectious virus particle production: 48 h
# [4] = test system: SARS-CoV-2; assay type: cell-based; conditions: 48 h
# [5] = molecular target: T1, Sec61α (HEK 293 FRT) (Homo sapiens, UniProt P61619); experiment: Luciferase reporter assay in parental HEK 293 FRT cells; assay type: cell-based; conditions: HEK293, 24 h
# T1 construct: host or cells: HEK293 Flp-In T-REx (parental, 'HEK 293 FRT')
# T1 sequence (P60468 whole entry): as the sequence (P60468 whole entry, further chain) above
# T1 sequence (P60059 whole entry, further chain): as the sequence (P60059 whole entry) above
# T1 sequence (P61619 whole entry): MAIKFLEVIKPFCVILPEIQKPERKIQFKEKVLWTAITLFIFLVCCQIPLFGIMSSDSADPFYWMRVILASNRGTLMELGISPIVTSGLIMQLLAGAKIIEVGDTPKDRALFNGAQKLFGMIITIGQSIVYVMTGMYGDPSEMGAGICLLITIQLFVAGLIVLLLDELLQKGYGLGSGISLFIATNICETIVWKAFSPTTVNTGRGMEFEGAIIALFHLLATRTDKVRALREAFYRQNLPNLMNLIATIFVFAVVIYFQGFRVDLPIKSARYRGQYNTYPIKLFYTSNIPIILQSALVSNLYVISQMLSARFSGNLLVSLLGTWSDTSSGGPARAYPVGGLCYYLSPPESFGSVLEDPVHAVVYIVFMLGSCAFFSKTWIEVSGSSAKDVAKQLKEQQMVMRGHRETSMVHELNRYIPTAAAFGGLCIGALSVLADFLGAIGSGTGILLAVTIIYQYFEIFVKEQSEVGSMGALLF
# From the text: All mutants were sequence verified.
# [6] = molecular target: Sec61α R66I (Canis lupus familiaris, UniProt P38377, R66I); experiment: Luciferase reporter assay in HEK293 cells expressing Sec61α R66I; parameters: remaining activity: dose or concentration left out as unconfirmed; conditions: HEK293, 24 h, read-out: luciferase reporter activity (% of no-drug control), R66I
# Sequence of Sec61α R66I (P38377 whole entry R66I): as the sequence (P38377 whole entry Q294A) above, with R66I, A294Q counted along it
# Sequence of Sec61α R66I (P60059 whole entry, further chain): as the sequence (P60059 whole entry) above
# Sequence of Sec61α R66I (P60468 whole entry, further chain): as the sequence (P60468 whole entry, further chain) above
# Procedure: as §1, §2, §3, §4
structure (smiles),measurement,setting,value
CC(C)CC1NC(=O)C(Cc2cn(Cc3ccc(Br)cc3)c3ccccc23)N(C)C(=O)C(CC(F)(F)F)NC(=O)C(CC(C)C)N(C)C(=O)C(CC(F)(F)F)NC(=O)C(CCC#N)OC(=O)C(C)N(C)C1=O (stereo not drawn) [KZR-8445] (cyclo([X1]L[NMeA][X2][ξAla(CF3)][NMeL][ξAla(CF3)]); configuration not given here),remaining activity at 0.00018303 µM,[1]; Drug nM (log10) 0.18303,80.7%
same,remaining activity at 0.000660151 µM,[1]; Drug nM (log10) 0.660151,67.2%
same,remaining activity at 0.00113727 µM,[1]; Drug nM (log10) 1.13727,44.1%
same,remaining activity,[1]; Drug nM (log10) 1.61439,22.4%
same,remaining activity,[1]; Drug nM (log10) 2.09151,11%
same,remaining activity,[1]; Drug nM (log10) 2.56864,4.26%
same,remaining activity,[1]; Drug nM (log10) 3.04576,2.2%
same,remaining activity,[1]; Drug nM (log10) 3.52288,1.85%
same,remaining activity at 0.004 µM,[1]; Drug nM (log10) 4,2.09%
same,remaining activity at 0.000508 µM,[1]; Drug nM (log10) -0.29409,89.6%
same,remaining activity at 0.00018303 µM,"[2]; HEK293, 24 h, read-out: luciferase reporter activity (% of no-drug control), N300A, Drug nM (log10) 0.18303",95.9%
same,remaining activity at 0.000660151 µM,"[2]; HEK293, 24 h, read-out: luciferase reporter activity (% of no-drug control), N300A, Drug nM (log10) 0.660151",88.9%
same,remaining activity at 0.00113727 µM,"[2]; HEK293, 24 h, read-out: luciferase reporter activity (% of no-drug control), N300A, Drug nM (log10) 1.13727",80.9%
same,remaining activity,"[2]; HEK293, 24 h, read-out: luciferase reporter activity (% of no-drug control), N300A, Drug nM (log10) 1.61439",74.8%
same,remaining activity,"[2]; HEK293, 24 h, read-out: luciferase reporter activity (% of no-drug control), N300A, Drug nM (log10) 2.09151",69.1%
same,remaining activity,"[2]; HEK293, 24 h, read-out: luciferase reporter activity (% of no-drug control), N300A, Drug nM (log10) 2.56864",69.9%
same,remaining activity,"[2]; HEK293, 24 h, read-out: luciferase reporter activity (% of no-drug control), N300A, Drug nM (log10) 3.04576",64%
same,remaining activity,"[2]; HEK293, 24 h, read-out: luciferase reporter activity (% of no-drug control), N300A, Drug nM (log10) 3.52288",62%
same,remaining activity at 0.004 µM,"[2]; HEK293, 24 h, read-out: luciferase reporter activity (% of no-drug control), N300A, Drug nM (log10) 4",67.2%
same,remaining activity at 0.000508 µM,"[2]; HEK293, 24 h, read-out: luciferase reporter activity (% of no-drug control), N300A, Drug nM (log10) -0.29409",96.5%
same,effect of N300A Sec61α expression on sensitivity in secreted GLuc assay,[2]; HEK293 cells,conferred resistance
same,infectious virus particle production,[3]; 0.01 uM,2000000 TCID50 per milliliter and 1175555 TCID50 per milliliter
same,infectious virus particle production,[3]; 10 uM,928.318 TCID50 per milliliter and 632.456 TCID50 per milliliter
same,CoV-2 replication,[3]; Vero cells,blocked
same,viral genome copy number,[4]; 0.01 uM,25500000 and 22400000 and 23500000
same,viral genome copy number,[4]; 0.04 uM,23500000 and 23900000 and 21400000
same,viral genome copy number,[4]; 0.12 uM,29500000 and 28600000 and 23600000
same,viral genome copy number,[4]; 0.37 uM,48700000 and 30700000 and 26200000
same,viral genome copy number,[4]; 1.11 uM,22100000 and 25700000 and 28600000
same,viral genome copy number,[4]; 3.33 uM,11600000 and 10500000 and 12800000
same,viral genome copy number,[4]; 10 uM,8080000 and 9090000 and 8060000
same,remaining activity at 0.00152 µM,"[5]; Drug nM (log10) 0.18303, read-out: luciferase reporter activity (% of no-drug control)",88.7%
same,remaining activity at 0.00457 µM,"[5]; Drug nM (log10) 0.660151, read-out: luciferase reporter activity (% of no-drug control)",75.3%
same,remaining activity at 0.04115 µM,"[5]; Drug nM (log10) 1.61439, read-out: luciferase reporter activity (% of no-drug control)",27%
same,remaining activity at 0.1235 µM,"[5]; Drug nM (log10) 2.09151, read-out: luciferase reporter activity (% of no-drug control)",12.8%
same,remaining activity at 0.37 µM,"[5]; Drug nM (log10) 2.56864, read-out: luciferase reporter activity (% of no-drug control)",4.89%
same,remaining activity at 1.111 µM,"[5]; Drug nM (log10) 3.04576, read-out: luciferase reporter activity (% of no-drug control)",2.41%
same,remaining activity at 3.33 µM,"[5]; Drug nM (log10) 3.52288, read-out: luciferase reporter activity (% of no-drug control)",2.03%
same,remaining activity at 10 µM,"[5]; Drug nM (log10) 4, read-out: luciferase reporter activity (% of no-drug control)",2.36%
same,remaining activity at 0.00050805 µM,"[5]; Drug nM (log10) -0.29409, read-out: luciferase reporter activity (% of no-drug control)",92.4%
same,remaining activity at 0.00018303 µM,[6]; Drug nM (log10) 0.18303,90.3%
same,remaining activity at 0.000660151 µM,[6]; Drug nM (log10) 0.660151,85.2%
same,remaining activity at 0.00113727 µM,[6]; Drug nM (log10) 1.13727,74.3%
same,remaining activity,[6]; Drug nM (log10) 1.61439,58.4%
same,remaining activity,[6]; Drug nM (log10) 2.09151,48.6%
same,remaining activity,[6]; Drug nM (log10) 2.56864,41.2%
same,remaining activity,[6]; Drug nM (log10) 3.04576,39.3%
same,remaining activity,[6]; Drug nM (log10) 3.52288,35.2%
